{
  "source": "paper PMC12291119",
  "about": "“In Vitro Selection of Cyclized, Glycosylated Peptide Antigens That Tightly Bind HIV High Mannose Patch Antibodies” (ACS Central Science, 2025)",
  "key": {"[1]": {"target": "PGT128", "test": "Biolayer interferometry (BLI) of immobilized biotinylated glycopeptides binding to PGT128", "conditions": "for fold decrease in PGT128 binding relative to parent H1 glycopeptide: BLI KD compared with H1 (peptide 1)", "source_text": "6 Biolayer interferometry (BLI) measurement of glycopeptides immobilized via biotin on a streptavidin biosensor binding to PGT128. All sensorgrams represent a series of 2-fold dilutions of antibody with highest concentration tested labeled. All sequences followed by GSGSGK(Biotin). M denotes homopropargylglycine, modified by CuAAC as in Figure .\nC. Binding Analysis of PGT Antibody-Peptide/Glycopeptide Interactions by Biolayer Interferometry\n1. Biolayer Interferometry Protocol\nBiotinylated glycopeptide was loaded onto a streptavidin biosensor in 250 µL buffer 1 (500 to 1000 nM […] glycopeptide in 20 mM Tris pH 7.5, 150 mM NaCl, 0.2 mg/ml BSA, 0.02% (v/v) Tween-20) for 120s in a […] of black Eppendorf tube. The sensor was then washed with 250 µL of blank buffer 1 for 120 seconds in a […] black Eppendorf tube. The sensor was washed with 250 µL buffer 3 (10 mM glycine HCl, pH 2.5) for 120 seconds in […] of black Eppendorf tube and followed by 250 µL of blank buffer 1 for 120 seconds in a […] black Eppendorf tube to immobilize glycopeptides in a range of 0.5 nm to 2 nm response. The sensor was then equilibrated with 250 µL of buffer 2 (20 mM Tris pH 7.5, 150 mM NaCl, 2 mg/ml BSA, 0.1% (v/v) Tween-20) for 120 seconds in a […] of black Eppendorf tube PGT antibody (prepared in buffer 2) was associated at several concentrations for 300 seconds in 4 µL drop holder followed by dissociation into blank 250 µL of buffer 2 for 300 seconds in […] of black Eppendorf tube. After each dissociation sensor was regenerated to remove the remaining antibody by treatment with 250 µL of buffer 3 for 120 seconds, followed by 120 seconds of wash with 250 µL buffer 1 and re-equilibration with 250 µL buffer 2 in […] of black Eppendorf tube. Throughout the experiment, the shaker rate was set at 2200 rpm. Data were fit globally to a 1:1 binding model.\n2. BLI Sensorgram of H1-QQQ-non-glycosylated Peptide with PGT128\nFigure S33. […]"}, "[2]": {"test_system": "HIV pseudovirus panel", "conditions": "ref number not given, cited from earlier work", "source_text": "We have sought to mimic HMP epitopes without using either the entire Env protein, which contains a plethora of “distracting” epitopes that easily elicit off-target antibodies; − or short glycopeptides directly derived from the Env sequence, which may not sufficiently recapitulate the HMP structure without the conformational support of the remaining Env protein. Aiming to design glycostructures that better mimic the glycan presentation in the HMP, we have pioneered various techniques for the directed evolution of DNA, , RNA, F-RNA, or peptide-supported , glycan clusters."}, "[3]": {"target": "HIV Env", "conditions": "read-out: reported affinities of PGT122 for HIV Env; ref number not given; cited from earlier work", "source_text": "We performed preliminary binding assays for those sequences and others using translated peptides with or without attached glycans. No sequ ..."}, "[4]": {"conditions": "diverse/representative HIV pseudovirus panel"}},
  "note": "Numbered stars: 1 amine (or outer) side, 2 acyl side, 3 side chain; on linkers, the order of the positions; unused ones are H or OH. Bridge positions count the residues as written; N and C are the ends. Square brackets hold non-standard residues; d marks the D form. Ends that are not written are not given here. * marks the point of attachment. X1 = CC(=O)N[C@@H]1[C@@H](O)[C@H](O[C@@H]2O[C@H](CO)[C@@H](O[C@@H]3O[C@H](CO[C@H]4O[C@H](CO[C@H]5O[C@H](CO)[C@@H](O)[C@H](O)[C@@H]5O[C@H]5O[C@H](CO)[C@@H](O)[C@H](O)[C@@H]5O)[C@@H](O)[C@H](O[C@H]5O[C@H](CO)[C@@H](O)[C@H](O)[C@@H]5O[C@H]5O[C@H](CO)[C@@H](O)[C@H](O)[C@@H]5O)[C@@H]4O)[C@@H](O)[C@H](O[C@H]4O[C@H](CO)[C@@H](O)[C@H](O)[C@@H]4O[C@H]4O[C@H](CO)[C@@H](O)[C@H](O)[C@@H]4O[C@H]4O[C@H](CO)[C@@H](O)[C@H](O)[C@@H]4O)[C@@H]3O)[C@H](O)[C@H]2NC(C)=O)[C@@H](CO)O[C@H]1n1cc(CC[C@H](N[*:1])C(=O)[*:2])nn1; Biotin = O=C1N[C@H]2[C@H](CS[C@H]2CCCCC(=O)*)N1; mXylylene = c1cc(C[*:1])cc(C[*:2])c1",
  "data": [
    {"substance": "ALFKPYPKIGDIRKARC[X1]LQHTLHHRTNKQPSYRRRLKTLIPLFRRC[X1]LGSGSGK(Biotin)-NH2 (linker 17-47 via mXylylene; C-terminus assumed) [compound 2]", "values": [
      {"measurement": "Kd", "setting": "[1]; BLI, peptide immobilized via biotin on streptavidin biosensor, 2-fold dilutions of PGT128 in 20 mM Tris pH 7.5, 150 mM NaCl, 2 mg/ml BSA, 0.1% Tween-20, 300 s association, 300 s dissociation, global 1:1 fit", "value": 16.9, "unit": "nM"}
    ]},
    {"substance": "AYTEKHNGIGDIRPAIC[X1]NSKNQNHRCNHYQIKLYIHQLQRLPHNYRNSGSGSGK(Biotin)-NH2 (linker 17-27 via mXylylene; C-terminus assumed) [peptide 4]", "values": [
      {"measurement": "fold decrease in PGT128 binding relative to parent H1 glycopeptide", "setting": "[1]", "value": "~40", "unit": "fold"}
    ]},
    {"substance": "AYTEKHNGIGDIRPAICQNSKNQNHRCNHYQIKLYIH[X1]L[X1]RLPHNYRNSGSGSGK(Biotin)-NH2 (linker 17-27 via mXylylene; C-terminus assumed) [peptide 3]", "values": [
      {"measurement": "fold decrease in PGT128 binding relative to parent H1 glycopeptide", "setting": "[1]", "value": "~2", "unit": "fold"}
    ]},
    {"substance": "PGT122: HIV bnAb binding the High Mannose Patch", "values": [
      {"measurement": "breadth (fraction of HIV pseudovirus panel neutralized)", "setting": "[2]; [4]", "value": 65, "unit": "%"},
      {"measurement": "median IC50", "setting": "[2]; [4]", "value": 0.05, "unit": "µg/mL"},
      {"measurement": "potency (EC50)", "setting": "[2]; neutralization potency", "value": 0.05, "unit": "µg/mL"},
      {"measurement": "Kd", "setting": "[3]", "value": "100 to 174", "unit": "nM"}
    ]}
  ]
}
